We go through ten compounds from patent publication US8598084B2, “Synergistic herbicide/insecticide composition containing certain pyridine carboxylic acids and certain insecticides” (priority 2010, dated 2013).

Common to all, as to type: in vivo
The subject of assay [1] is bird's-eye speedwell (Veronica persica L; VERPE). Description: Postemergence herbicidal activity of mixtures, greenhouse, visual injury vs control. Conditions: for pest or weed control at 1.25 g/ha: 1.25 g/ha alone. As for the experimental part:
(§1) Evaluation of Postemergence Herbicidal Activity of Mixtures in Cereal Crops
(§2) Seeds of the desired test plant species were planted in Sun Gro MetroMix® 306 planting mixture, which typically has a pH of 6.0 to 6.8 and an organic matter content of about 30 percent, in plastic pots with a surface area of 103.2 square centimeters (cm^2). When required to ensure good germination and healthy plants, a fungicide treatment and/or other chemical or physical treatment was applied. The plants were grown for 7-36 days (d) in a greenhouse with an approximate 14 hour (h) photoperiod which was maintained at about 18° C. during the day and 17° C. during the night. Nutrients and water were added on a regular basis and supplemental lighting was provided with overhead metal halide 1000-Watt lamps as necessary. The plants were employed for testing when they reached the second or third true leaf stage.
(§3) Treatments consisted of an insecticidal compound (as listed in Tables 1 through 18) and the cereal herbicide, 4-amino-3-chloro-6-(4-chloro-2-fluoro-3-methoxyphenyl)pyridine-2-carboxylic acid, alone and in combination. Weighed amounts of esters (methyl) or salts (triethylammonium, TEA) of 4-amino-3-chloro-6-(4-chloro-2-fluoro-3-methoxyphenyl)pyridine-2-carboxylic acid (Compound I) were placed in 25 milliliter (mL) glass vials and dissolved in a volume of 97:3 volume per volume (v/v) acetone/dimethyl sulfoxide (DMSO) to obtain 4.5 milligrams active ingredient per mL (mg ai/mL) concentrated solutions. […] The concentrated solutions of Compound I were diluted to 1.5 mg ai/mL with the addition of 2 volumes of an aqueous mixture containing acetone, water, isopropyl alcohol, DMSO, Agri-dex crop oil concentrate, and Triton® X-77 surfactant in a 64.7:26.0:6.7:2.0:0.7:0.01 v/v ratio. A dilution solution was prepared by mixing 1 volume of 97:3 v/v acetone/DMSO and 2 volumes of an aqueous mixture containing acetone, water, isopropyl alcohol, DMSO, Agri-dex crop oil concentrate, and Triton® X-77 surfactant in a 64.7:26.0:6.7:2.0:0.7:0.01 v/v ratio. Compound requirements are based upon a 12 mL application volume at a rate of 187 liters per hectare (L/ha). The concentrated solutions of the cereal insecticides were prepared following the same procedure. Weighed amounts of insecticide were placed in 25 milliliter (mL) glass vials and dissolved in a volume of 97:3 v/v acetone/DMSO to obtain concentrated insecticide solutions. The concentrated solutions of the safener were prepared following the same procedure. Weighed amounts of safener were placed in 25 mL glass vials and dissolved in a volume of 97:3 v/v acetone/DMSO to obtain concentrated safener solutions. The concentrated solutions were diluted to 0.75 mg/mL with an aqueous mixture of 1.5% v/v of Agri-dex crop oil concentrate.
(§4) Spray solutions of the cereal herbicide and the insecticidal compound mixtures were prepared by adding the concentrated solutions to the appropriate amount of dilution solution to form 12 mL spray solution with active ingredients in combinations. Spray solutions of the cereal herbicide, herbicide safener and the insecticidal compound mixtures were prepared by adding the concentrated solutions to the appropriate amount of dilution solution to form 12 mL spray solution with active ingredients in combinations. Formulated compounds were applied to the plant material with an overhead Mandel track sprayer equipped with 8002E nozzles calibrated to deliver 187 L/ha over an application area of 0.503 square meters (m^2) at a spray height of 18 inches […] above average plant canopy. Control plants were sprayed in the same manner with the solvent blank.
(§5) The treated plants and control plants were placed in a greenhouse as described above and watered by sub-irrigation to prevent wash-off of the test compounds. […]

Assay [2] deals with wild pansy (Viola tricolor L; VIOTR). The assay is described as above. Conditions: for pest or weed control at 1.25 g/ha: 1.25 g/ha alone. As for the experimental part:
as §1, §2, §3, §4, §5

Assay [3] relates to Russian thistle (Salsola iberica L; SASKR). The assay is described as above. Conditions: for pest or weed control at 1.25 g/ha: 1.25 g/ha alone. As for the experimental part: as §1, §2, §3, §4, §5
For assay [4], the system named is scented mayweed (Matricaria chamomila L; MATCH). Described as above. As to the method: as §1, §2, §3, §4, §5
Assay [5] deals with kochia (Kochia scoparia L; KCHSC). Described as above. As to the method:
as §1, §2, §3, §4, §5

The subject of assay [6] is barley (Hordeum vulgare L; HORVS). Description: Postemergence crop injury and safening, greenhouse, visual injury vs control. Conditions: crop injury. As to the method:
as §1, §2, §3, §4, §5

In assay [7] the test system is wheat (Triticum aestivum L; TRZAS). The description is as above. Conditions: crop injury. As to the method: as §1, §2, §3, §4, §5
The mark [8] stands for this setting: Veronica persica, post-emergence, read-out: Ob (observed injury).
Where [9] appears, read: Viola tricolor, post-emergence, read-out: Ob (observed injury).
[10] abbreviates: Salsola tragus, post-emergence, read-out: Ob (observed injury).

As to `Cc1c(COC(=O)[C@@H]2[C@H](/C=C(\Cl)C(F)(F)F)C2(C)C)cccc1-c1ccccc1` (relative stereo) [Bifenthrin, (2-methyl[1,1′-biphenyl]-3-yl)methyl (1R,3R)-rel-3-[(1Z)-2-chloro-3,3,3-trifluoro-1-propenyl]-2,2-dimethylcyclopropanecarboxylate, reference compound], the pest or weed control at 1.6 g/ha in assay [1] (Veronica persica, post-emergence, 1.6 g/ha alone, read-out: Ob (observed injury)) came out at 0%; in assay [2] (Viola tricolor, post-emergence, 1.6 g/ha alone, read-out: Ob (observed injury)), 0%; in assay [3] (Salsola tragus, post-emergence, 1.6 g/ha alone, read-out: Ob (observed injury)), 0%; in assay [4] (Matricaria, post-emergence, 1.6 g/ha alone, read-out: Ob (observed injury)), 0%.

As to `CC1(C)[C@H](/C=C(\Cl)C(F)(F)F)[C@@H]1C(=O)O[C@@H](C#N)c1cccc(Oc2ccccc2)c1` (relative stereo) [λ-Cyhalothrin, (R)-cyano(3-phenoxyphenyl)methyl (1S,3S)-rel-3-[(1Z)-2-chloro-3,3,3-trifluoro-1-propenyl]-2,2-dimethylcyclopropanecarboxylate], the pest or weed control at 1.25 g/ha in assay [1] (setting [8]), in assay [2] (setting [9]) and in assay [3] (setting [10]) was 0% in each case.

Consider `CCOP(=S)(OCC)Oc1nc(Cl)c(Cl)cc1Cl` [Chlorpyrifos, O,O-diethyl O-(3,5,6-trichloro-2-pyridinyl) phosphorothioate, reference compound], for which the pest or weed control at 60 g/ha in assay [5] (Bassia scoparia, post-emergence, 60 g/ha alone, read-out: Ob (observed injury)) worked out at 0%; in assay [1] (Veronica persica, post-emergence, 60 g/ha alone, read-out: Ob (observed injury)) it was 0%; in assay [2] (Viola tricolor, post-emergence, 60 g/ha alone, read-out: Ob (observed injury)), 0%; in assay [3] (Salsola tragus, post-emergence, 60 g/ha alone, read-out: Ob (observed injury)) it was 0%; in assay [4] (Matricaria, post-emergence, 60 g/ha alone, read-out: Ob (observed injury)) it was 0%.

For the compound `CCN(CC)CC.COc1c(Cl)ccc(-c2cc(N)c(Cl)c(C(=O)O)n2)c1F` [Compound I TEA salt], the “Ob (observed injury)” value in assay [5] (8.75 g/ha alone) is reported as 40%; in assay [5] (17.5 g/ha alone) it was 55%; in assay [5] (35 g/ha alone) it was 65%; in assay [1] (8.75 g/ha alone) it was 10%; in assay [1] (17.5 g/ha alone), 40%; in assay [1] (35 g/ha alone), 70%. Further, the “Ob (observed injury)” value in assay [2] (8.75 g/ha alone) is reported as 23%; in assay [2] (17.5 g/ha alone) it was 40%; in assay [2] (35 g/ha alone), 47%; in assay [3] (8.75 g/ha alone), 80%; in assay [3] (17.5 g/ha alone), 84%; in assay [3] (35 g/ha alone), 86%. The “Ob (observed injury)” value came out at 40% in assay [4] (8.75 g/ha alone), 67% in assay [4] (17.5 g/ha alone) and 73% in assay [4] (35 g/ha alone).

As to `CC1(C)C(C=C(Cl)Cl)C1C(=O)OC(C#N)c1ccc(F)c(Oc2ccccc2)c1` (stereo not drawn) [Cyfluthrin, cyano(4-fluoro-3-phenoxyphenyl)methyl 3-(2,2-dichloroethenyl)-2,2-dimethylcyclopropanecarboxylate, reference compound], the pest or weed control at 3.75 g/ha in assay [5] (Bassia scoparia, post-emergence, 3.75 g/ha alone, read-out: Ob (observed injury)) came to 0%; in assay [2] (Viola tricolor, post-emergence, 3.75 g/ha alone, read-out: Ob (observed injury)) it was 0%; in assay [3] (Salsola tragus, post-emergence, 3.75 g/ha alone, read-out: Ob (observed injury)) it was 0%; in assay [4] (Matricaria, post-emergence, 3.75 g/ha alone, read-out: Ob (observed injury)), 0%.

`CC1(C)[C@H](C(=O)O[C@H](C#N)c2cccc(Oc3ccccc3)c2)[C@@H]1C=C(Br)Br` [Deltamethrin, (S)-cyano(3-phenoxyphenyl)methyl (1R,3R)-3-(2,2-dibromoethenyl)-2,2-dimethylcyclopropanecarboxylate, reference compound]: the pest or weed control at 1.25 g/ha in assay [5] (Bassia scoparia, post-emergence, 1.25 g/ha alone, read-out: Ob (observed injury)) was found to be 0%; in assay [1] (setting [8]) it was 0%; in assay [2] (setting [9]) it was 0%; in assay [3] (setting [10]), 0%; in assay [4] (Matricaria, post-emergence, 1.25 g/ha alone, read-out: Ob (observed injury)), 0%.

For `CNC(=O)CSP(=S)(OC)OC` [Dimethoate, O,O-dimethyl S-[2-(methylamino)-2-oxoethyl]phosphorodithioate, reference compound], the pest or weed control at 170 g/ha in assay [5] (Bassia scoparia, post-emergence, 170 g/ha alone, read-out: Ob (observed injury)) turned out to be 0%; in assay [1] (Veronica persica, post-emergence, 170 g/ha alone, read-out: Ob (observed injury)), 0%; in assay [2] (Viola tricolor, post-emergence, 170 g/ha alone, read-out: Ob (observed injury)), 0%; in assay [3] (Salsola tragus, post-emergence, 170 g/ha alone, read-out: Ob (observed injury)), 0%.

Turning to `N#CCNC(=O)c1cnccc1C(F)(F)F` [Flonicamid, N-(cyanomethyl)-4-(trifluoromethyl)-3-pyridinecarboxamide], the pest or weed control at 17.5 g/ha in assay [2] (Viola tricolor, post-emergence, 17.5 g/ha alone, read-out: Ob (observed injury)) is 0%; in assay [3] (Salsola tragus, post-emergence, 17.5 g/ha alone, read-out: Ob (observed injury)), 0%; in assay [4] (Matricaria, post-emergence, 17.5 g/ha alone, read-out: Ob (observed injury)), 0%.

With `CCOC(=O)CC(SP(=S)(OC)OC)C(=O)OCC` (stereo not drawn) [Malathion, diethyl[(dimethoxythiophosphinothioyl)thio]butanedioate, reference compound], the “Ob (observed injury)” value in assay [6] (280 g/ha alone), in assay [6] (1120 g/ha alone), in assay [7] (280 g/ha alone) and in assay [7] (1120 g/ha alone) was 0% throughout. Also, the pest or weed control at 280 g/ha in assay [5] (Bassia scoparia, post-emergence, 280 g/ha alone, read-out: Ob (observed injury)) was 0%; in assay [2] (Viola tricolor, post-emergence, 280 g/ha alone, read-out: Ob (observed injury)), 0%; in assay [3] (Salsola tragus, post-emergence, 280 g/ha alone, read-out: Ob (observed injury)) it was 0%; in assay [4] (Matricaria, post-emergence, 280 g/ha alone, read-out: Ob (observed injury)), 0%. Also, in assay [2] (Viola tricolor, post-emergence, 1120 g/ha alone, read-out: Ob (observed injury)), the pest or weed control at 1120 g/ha was determined as 0%.

Turning to `Cc1nc(N(C)C)nc(OC(=O)N(C)C)c1C` [Pirimicarb, 2-(dimethylamino)-5,6-dimethyl-4-pyrimidinyl dimethylcarbamate, reference compound], the pest or weed control at 35 g/ha in assay [5] (Bassia scoparia, post-emergence, 35 g/ha alone, read-out: Ob (observed injury)) turned out to be 0%; in assay [1] (Veronica persica, post-emergence, 35 g/ha alone, read-out: Ob (observed injury)) it was 0%; in assay [2] (Viola tricolor, post-emergence, 35 g/ha alone, read-out: Ob (observed injury)) it was 0%; in assay [3] (Salsola tragus, post-emergence, 35 g/ha alone, read-out: Ob (observed injury)), 0%; in assay [4] (Matricaria, post-emergence, 35 g/ha alone, read-out: Ob (observed injury)), 0%.
